Test results from patent publication US4760136A, “Chartreusin derivatives and salts thereof” (Ishihara Sangyo Kaisha, Ltd., priority 1984, dated 1988).

Columns and labels:
P-388 leukemia cells = test: Antitumor activity: P-388 leukemia cells inoculated intraperitoneally, drug administered intravenously, BDF1 mice; assay type: in vivo; conditions: Mus musculus, P388, iv, BDF1 mice, P-388 i.p., read-out: T/C (%) of MST; for response vs control in vivo at 40 mg/kg: dose c: 40 mg/kg × 3, i.v. on days 1, 5 and 9; for response vs control in vivo at 80 mg/kg: dose f: 80 mg/kg × 3, i.v. on days 1, 5 and 9; for response vs control in vivo at 20 mg/kg: dose b: 20 mg/kg × 3, i.v. on days 1, 5 and 9; for response vs control in vivo at 10 mg/kg: dose a: 10 mg/kg × 3, i.v. on days 1, 5 and 9; for response vs control in vivo at 50 mg/kg: dose d: 50 mg/kg × 3, i.v. on days 1, 5 and 9
Outline: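 Drug dosing was intravenous on the first, fifth and ninth days after intraperitoneal inoculation of P-388 leukemia cells (1×10^6 per mouse) into BDF1 mice. Vehicles were physiological saline alone, or saline with small amounts of sodium carboxymethyl cellulose or Tween-80.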

[1] = Acute toxicity, intravenous (once), ddY mice; assay type: in vivo; conditions: mouse, in vivo, iv, formulated per Preparation Example
Source text: In Table 7 are shown acute toxicity values (LD50, mg/kg) in ddY mice in the case of intravenously administering (once) each of the compounds of this invention in the form of preparations shown in the Preparation Examples shown in Table 7.

| Compound | response vs control in vivo at 40 mg/kg (P-388 leukemia cells) | response vs control in vivo at 80 mg/kg (P-388 leukemia cells) | LD50 [1] | response vs control in vivo at 20 mg/kg (P-388 leukemia cells) | response vs control in vivo at 10 mg/kg (P-388 leukemia cells) | response vs control in vivo at 160 mg/kg (P-388 leukemia cells; dose i: 160 mg/kg × 3, i.v. on days 1, 5 and 9) | response vs control in vivo at 50 mg/kg (P-388 leukemia cells) |
| --- | --- | --- | --- | --- | --- | --- | --- |
| COC1C(O)C(C)OC(OC2C(Oc3cccc4c(OC(=O)CC(C)C)c5c(=O)oc6ccc(C)c7c(=O)oc(c34)c5c67)OC(C)C3OC(c4cccc(Br)c4)OC32)C1O (stereo not drawn) [Compound No. 163] | 156% | 227% | ≥ 80 mg/kg | – | – | – | – |
| COC1C(O)C(C)OC(OC2C(Oc3cccc4c(OC(=O)CC(C)C)c5c(=O)oc6ccc(C)c7c(=O)oc(c34)c5c67)OC(C)C3OC(c4ccccc4)OC32)C1O (stereo not drawn) [Compound No. 169, 6-O-(3-Methyl-n-Butyryl)-3',4'-O-Benzylidene-Chartreusin] | – | – | ≥ 40 mg/kg | 202% | – | – | – |
| C#CCCC(=O)Oc1c2cccc(O[C@@H]3O[C@H](C)[C@@H]4OC(C)(C)O[C@@H]4[C@H]3O[C@H]3O[C@H](C)[C@H](O)[C@H](OC)[C@H]3O)c2c2oc(=O)c3c(C)ccc4oc(=O)c1c2c43 [compound 201] | 162% | – | ≥ 60 mg/kg | – | – | – | – |
| CCC(CN(C)C)C(=O)Oc1c2cccc(OC3OC(C)C4OC(c5ccccc5)OC4C3OC3OC(C)C(O)C(OC)C3O)c2c2oc(=O)c3c(C)ccc4oc(=O)c1c2c43 (stereo not drawn) [compound 134] | – | – | ≥ 30 mg/kg | 175% | 192% | – | – |
| COC1C(O)C(C)OC(OC2C(Oc3cccc4c(OC(=O)CCCCCCCCCCCNC(C)=O)c5c(=O)oc6ccc(C)c7c(=O)oc(c34)c5c67)OC(C)C3OC(C)(C)OC32)C1O (stereo not drawn) [compound 129] | – | – | ≥ 180 mg/kg | – | – | 167% | – |
| CO[C@H]1[C@@H](O)[C@@H](C)O[C@H](O[C@H]2[C@H](Oc3cccc4c(OC(=O)C5CC5C)c5c(=O)oc6ccc(C)c7c(=O)oc(c34)c5c67)O[C@H](C)[C@@H]3OC(c4ccc(Cl)cc4)O[C@@H]32)[C@@H]1O (stereo partly drawn) [Compound No. 190] | 145% | 208% | ≥ 80 mg/kg | – | – | – | – |
| COC1C(O)C(C)OC(OC2C(Oc3cccc4c(OC(=O)CCc5ccccc5)c5c(=O)oc6ccc(C)c7c(=O)oc(c34)c5c67)OC(C)C3OC(c4ccccc4)OC32)C1O (stereo not drawn) [Compound No. 154] | 214% | – | ≥ 40 mg/kg | 205% | – | – | – |
| CO[C@H]1[C@@H](O)[C@@H](C)O[C@H](O[C@H]2[C@H](Oc3cccc4c(OC(=O)CCCCl)c5c(=O)oc6ccc(C)c7c(=O)oc(c34)c5c67)O[C@H](C)[C@@H]3OC(c4ccccc4)O[C@@H]32)[C@@H]1O (stereo partly drawn) [compound 214] | 130% | 198% | ≥ 80 mg/kg | – | – | – | – |
| CO[C@H]1[C@@H](O)[C@@H](C)O[C@H](O[C@H]2[C@H](Oc3cccc4c(OC(=O)c5ccccc5Cl)c5c(=O)oc6ccc(C)c7c(=O)oc(c34)c5c67)O[C@H](C)[C@@H]3OC(c4cccc([N+](=O)[O-])c4)O[C@@H]32)[C@@H]1O (stereo partly drawn) [Compound No. 189] | 146% | 214% | ≥ 80 mg/kg | – | – | – | – |
| COC1C(O)C(C)OC(OC2C(Oc3cccc4c(OC(=O)C(NC(=O)OCc5ccccc5)C(C)C)c5c(=O)oc6ccc(C)c7c(=O)oc(c34)c5c67)OC(C)C3OC(c4ccccc4Cl)OC32)C1O (stereo not drawn) [compound 105] | – | 216% | ≥ 80 mg/kg | – | – | – | – |
| COC1C(O)C(C)OC(OC2C(Oc3cccc4c(OC(=O)C(Cc5ccccc5)NC(=O)OCc5ccccc5)c5c(=O)oc6ccc(C)c7c(=O)oc(c34)c5c67)OC(C)C3OC(C)(C)OC32)C1O (stereo not drawn) [compound 128] | – | – | ≥ 100 mg/kg | – | – | – | 146% |
| COC1C(O)C(C)OC(OC2C(Oc3cccc4c(OC(=O)CCNC=O)c5c(=O)oc6ccc(C)c7c(=O)oc(c34)c5c67)OC(C)C3OC(C)(C)OC32)C1O (stereo not drawn) [Compound No. 48, 6-O-(N-formyl-β-alanyl)-3',4'-O-isopropylidene-chartreusin] | – | 172% | ≥ 120 mg/kg | – | – | – | – |
| COC1C(O)C(C)OC(OC2C(Oc3cccc4c(OC(=O)CCNC=O)c5c(=O)oc6ccc(C)c7c(=O)oc(c34)c5c67)OC(C)C3OC(c4ccc(F)cc4)OC32)C1O (stereo not drawn) [compound 92] | 192% | – | ≥ 40 mg/kg | 146% | – | – | – |
| COC1C(O)C(C)OC(OC2C(Oc3cccc4c(OC(=O)CCNC(=O)C(Cl)(Cl)Cl)c5c(=O)oc6ccc(C)c7c(=O)oc(c34)c5c67)OC(C)C3OC(C)(C)OC32)C1O (stereo not drawn) [Compound No. 112, 6-O-(N-Trichloroacetyl-β-Alanyl)-3',4'-O-Isopropylidene-Chartreusin] | – | – | ≥ 100 mg/kg | – | – | – | 148% |
| COC1C(O)C(C)OC(OC2C(Oc3cccc4c(OC(=O)CCSC)c5c(=O)oc6ccc(C)c7c(=O)oc(c34)c5c67)OC(C)C3OC(c4ccccc4)OC32)C1O (stereo not drawn) [Compound No. 152] | 210% | – | ≥ 40 mg/kg | 157% | – | – | – |
| COC1C(O)C(C)OC(OC2C(Oc3cccc4c(OC(=O)C(Cc5c[nH]c6ccccc56)NC(=O)OCc5ccccc5)c5c(=O)oc6ccc(C)c7c(=O)oc(c34)c5c67)OC(C)C3OC(c4ccccc4)OC32)C1O (stereo not drawn) [compound 121] | 146% | – | ≥ 40 mg/kg | – | – | – | – |
| C=CCCC(=O)Oc1c2cccc(O[C@@H]3O[C@H](C)[C@@H]4OC(c5ccccc5)O[C@@H]4[C@H]3O[C@H]3O[C@H](C)[C@H](O)[C@H](OC)[C@H]3O)c2c2oc(=O)c3c(C)ccc4oc(=O)c1c2c43 (stereo partly drawn) [compound 192] | – | – | ≥ 40 mg/kg | 199% | 153% | – | – |
| COC1C(O)C(C)OC(OC2C(Oc3cccc4c(OC(=O)CCNC=O)c5c(=O)oc6ccc(C)c7c(=O)oc(c34)c5c67)OC(C)C3OC(c4ccccc4Cl)OC32)C1O (stereo not drawn) [Compound No. 58] | 162% | 216% | ≥ 80 mg/kg | – | – | – | – |
| COC1C(O)C(C)OC(OC2C(Oc3cccc4c(OC(=O)C(C)(C)C)c5c(=O)oc6ccc(C)c7c(=O)oc(c34)c5c67)OC(C)C3OC(c4ccccc4)OC32)C1O (stereo not drawn) [Compound No. 170] | – | – | ≥ 40 mg/kg | 198% | – | – | – |
| COC1C(O)C(C)OC(OC2C(Oc3cccc4c(OC(=O)CCNC(=O)C(Cl)(Cl)Cl)c5c(=O)oc6ccc(C)c7c(=O)oc(c34)c5c67)OC(C)C3OC(c4cccc(Br)c4)OC32)C1O (stereo not drawn) [Compound No. 56] | 165% | 219% | ≥ 80 mg/kg | – | – | – | – |
| COC1C(O)C(C)OC(OC2C(Oc3cccc4c(OC(=O)CCNC=O)c5c(=O)oc6ccc(C)c7c(=O)oc(c34)c5c67)OC(C)C3OC(c4cccc(F)c4)OC32)C1O (stereo not drawn) [Compound No. 46] | 157% | 210% | ≥ 80 mg/kg | – | – | – | – |
| COC1C(O)C(C)OC(OC2C(Oc3cccc4c(OC(=O)CCC(=O)c5ccccc5)c5c(=O)oc6ccc(C)c7c(=O)oc(c34)c5c67)OC(C)C3OC(C)(C)OC32)C1O (stereo not drawn) [compound 224, 6-O-(3-benzoylpropionyl)-3',4'-O-isopropylidene-chartreusin] | – | – | ≥ 60 mg/kg | – | – | – | 148% |
| CO[C@H]1[C@@H](O)[C@@H](C)O[C@H](O[C@H]2[C@H](Oc3cccc4c(OC(=O)[C@@H](NC(=O)CNC(=O)CN)C(C)C)c5c(=O)oc6ccc(C)c7c(=O)oc(c34)c5c67)O[C@H](C)[C@@H]3OC(c4ccccc4)O[C@@H]32)[C@@H]1O (stereo partly drawn) [compound 36, 6-O-(glycyl-glycyl-valyl)-3',4'-O-benzylidene-chartreusin phosphate] | – | – | ≥ 40 mg/kg | 157% | 135% | – | – |
| COC1C(O)C(C)OC(OC2C(Oc3cccc4c(OC(=O)C5CC5)c5c(=O)oc6ccc(C)c7c(=O)oc(c34)c5c67)OC(C)C3OC(c4ccsc4)OC32)C1O (stereo not drawn) [Compound No. 155] | 183% | – | ≥ 40 mg/kg | 171% | – | – | – |
| COC1C(O)C(C)OC(OC2C(Oc3cccc4c(OC(=O)CCCCNC(=O)C(F)(F)F)c5c(=O)oc6ccc(C)c7c(=O)oc(c34)c5c67)OC(C)C3OC(c4ccccc4)OC32)C1O (stereo not drawn) [Compound No. 43] | – | – | ≥ 40 mg/kg | 226% | – | – | – |
| COC1C(O)C(C)OC(OC2C(Oc3cccc4c(OC(=O)CCC(C)=O)c5c(=O)oc6ccc(C)c7c(=O)oc(c34)c5c67)OC(C)C3OC(c4ccccc4)OC32)C1O (stereo not drawn) [Compound No. 153] | 243% | – | ≥ 40 mg/kg | 203% | – | – | – |
| COC1C(O)C(C)OC(OC2C(Oc3cccc4c(OC(=O)CCC(C)=O)c5c(=O)oc6ccc(C)c7c(=O)oc(c34)c5c67)OC(C)C3OC(C)(C)OC32)C1O (stereo not drawn) [Compound No. 156] | 160% | 218% | ≥ 80 mg/kg | – | – | – | – |
| COC1C(O)C(C)OC(OC2C(Oc3cccc4c(OC(=O)C(Cc5c[nH]c6ccccc56)NC(=O)OCc5ccccc5)c5c(=O)oc6ccc(C)c7c(=O)oc(c34)c5c67)OC(C)C3OC4(CCCCC4)OC32)C1O (stereo not drawn) [compound 133] | – | 139% | ≥ 100 mg/kg | – | – | – | – |
| COC1C(O)C(C)OC(OC2C(Oc3cccc4c(OC(=O)COC(C)=O)c5c(=O)oc6ccc(C)c7c(=O)oc(c34)c5c67)OC(C)C3OC(c4ccccc4)OC32)C1O (stereo not drawn) [Compound No. 148] | 250% | – | ≥ 40 mg/kg | 185% | – | – | – |
